# From patent publication US20250270246A1, “LINCOSAMIDES AND USES THEREOF” (President and Fellows of Harvard College, priority 2022, published 2025)
# “And” between values parts separate entries of the source, which are not always exact repeats. Equal entries are not always repeated.
# Columns and labels:
# [1] = from C=CCC[C@@H](NC(=O)[C@@H]1[C@@H]2OCC[C@@H](CC(C)C)C[C@H]2CN1C(=O)OC(C)(C)C)[C@H]1O[C@H](SCC=C)[C@H](O)[C@@H](O)[C@H]1O; rcm bond; 10-membered ring; Grubbs II (20 mol%)/benzoquinone; then HCl/MeOH; toluene; 0.2 mM; 0.33 h; 3 steps
# [2] = test system: E. coli ATCC 25922 (HAV#006); assay: MIC by broth microdilution (CLSI); format: cell-based; settings: Escherichia coli, ATCC25922, 24 h, HAV#006, ATCC 25922; CaMHB, 24 h incubation; read-out: MIC E. coli ATCC 25922
# Summary of the method: (§1)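 CLSI broth microdilution in cation-adjusted Mueller-Hinton broth, inoculum 5×10^5 CFU/mL, compounds typically 64-0.06 μg/mL with 2.5% final DMSO. MIC is the lowest concentration preventing visible growth after 24 h. For P. aeruginosa, broth was pre-treated with Chelex 100 resin.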
# [3] = test system: E. coli lptD mutant; assay: MIC by broth microdilution (CLSI); format: cell-based; settings: Escherichia coli, 24 h, read-out: MIC E. coli lptD mutant, lptD mutant / ΔlptD mutant; CaMHB, 24 h incubation
# Summary of the method: as §1
# [4] = test system: E. faecalis ATCC 29212 (HAV#005); assay: MIC by broth microdilution (CLSI); format: cell-based; settings: Enterococcus faecalis, ATCC29212, 24 h, HAV#005, ATCC 29212; CaMHB, 24 h incubation; read-out: MIC E. faecalis ATCC 29212
# Summary of the method: as §1
# [5] = test system: E. faecium JMI-990536; assay: MIC by broth microdilution (CLSI); format: cell-based; settings: Enterococcus faecium, JMI990536, 24 h, JMI-990536; CaMHB, 24 h incubation; read-out: MIC E. faecium JMI-990536
# Summary of the method: as §1
# [6] = test system: H. influenzae ATCC 49247; assay: MIC by broth microdilution (CLSI); format: cell-based; settings: Haemophilus influenzae, ATCC49247; ATCC 49247; 24 h incubation; read-out: MIC H. influenzae ATCC 49247
# Summary of the method: as §1
# [7] = test system: K. pneumoniae JMI-991193; assay: MIC by broth microdilution (CLSI); format: cell-based; settings: Klebsiella pneumoniae, JMI991193, 24 h, JMI-991193; CaMHB, 24 h incubation; read-out: MIC K. pneumoniae JMI-991193
# Summary of the method: as §1
# [8] = test system: M. catarrhalis ATCC 25238; assay: MIC by broth microdilution (CLSI); format: cell-based; settings: Moraxella catarrhalis, ATCC25238, 24 h incubation
# Summary of the method: as §1
# [9] = test system: S. aureus ATCC 29213 (HAV#001); assay: MIC by broth microdilution (CLSI); format: cell-based; settings: Staphylococcus aureus, ATCC29213, 24 h, HAV#001, ATCC 29213; CaMHB, 24 h incubation; read-out: MIC S. aureus ATCC 29213
# Summary of the method: as §1
# [10] = test system: S. aureus Clinical (cfr); assay: MIC by broth microdilution (CLSI); format: cell-based; settings: Staphylococcus aureus, 24 h, Clinical (cfr); CaMHB, 24 h incubation; read-out: MIC S. aureus Clinical (cfr)
# Summary of the method: as §1
# [11] = test system: S. aureus MMX 3035; assay: MIC by broth microdilution (CLSI); format: cell-based; settings: Staphylococcus aureus, MMX3035, 24 h, MMX 3035; CaMHB, 24 h incubation; read-out: MIC S. aureus MMX 3035
# Summary of the method: as §1
# [12] = test system: S. pneumoniae c-ermB; assay: MIC by broth microdilution (CLSI); format: cell-based; settings: Streptococcus pneumoniae, 24 h, read-out: MIC S. pneumoniae c-ermB
# Summary of the method: as §1
# [13] = test system: P. aeruginosa ATCC 27853 (HAV#009); assay: MIC by broth microdilution (CLSI), Chelex 100-treated broth; format: cell-based; settings: Pseudomonas aeruginosa, ATCC27853; HAV#009, ATCC 27853; CaMHB pre-treated with Chelex 100 ion exchange resin, 24 h
# Method: Minimum inhibitory concentrations (MICs) were determined by the broth microdilution method following the Clinical and Laboratory Standards Institute (CLSI) guidelines. Test organisms consisted of standard reference strains from the American Type Culture Collection (ATCC; Manassa, VA, USA) and clinical isolates obtained from JMI Laboratories Inc. (North Liberty, IA, USA), Micromyx repository (MMX; Kalamazoo, MI, USA), and Massachusetts Eye and Ear Hospital (Boston, USA). Before the start of the MIC experiment, standard and test compound stock solutions were prepared in dimethyl sulfoxide (DMSO, Aldrich D2650) at a stock concentration of 2,560 μg/mL. The compound concentration range typically employed for each experiment was 64-0.06 μg/mL (2.5% final DMSO concentration). Iboxamycin was used as a comparator in all experiments. All bacterial strains were sub-cultured on blood agar plates (tryptic soy agar with 5% sheep blood, Hardy Diagnostics) and incubated overnight at 35° C. Organisms were suspended in cation-adjusted Mueller-Hinton broth (CaMHB, BD 212322) and optical density was adjusted to 0.5 McFarland standard. Suspensions were further diluted to obtain a final inoculum of 5×10^5 CFU/mL for broth microdilution experiments. The minimum concentration of compound required to inhibit visible bacterial growth after 24 h of incubation was recorded as the MIC in μg/mL. MICs for P. aeruginosa were recorded in cation-adjusted Mueller-Hinton broth which had been pre-treated with Chelex 100 ion exchange resin according to procedures reported in Ito et al. Antimicrob Agents Chemother (2016) 60 (12), 7396-7401.
Compound,"ring closure, yield after HPLC [1]",MIC [2] [µg/mL],MIC [3] [µg/mL],MIC [4] [µg/mL],MIC [5] [µg/mL],MIC [6] [µg/mL],MIC [7] [µg/mL],MIC [8] [µg/mL],MIC [9] [µg/mL],MIC [10] [µg/mL],MIC [11] [µg/mL],MIC [12] [µg/mL],MIC [13] [µg/mL]
CC(C)C[C@@H]1CCO[C@@H]2[C@@H](C1)CN(C(=O)OC(C)(C)C)[C@@H]2C(=O)N[C@@H]1CCC=CCS[C@H]2O[C@H]1[C@H](O)[C@H](O)[C@H]2O,1.3% and 1.7%,–,–,–,–,–,–,–,–,–,–,–,–
"CC(C)C[C@@H]1CCO[C@@H]2[C@H](CN[C@@H]2C(=O)N[C@H]2[C@H]3O[C@H](SCCCC/C=C/[C@@H]2C)[C@H](O)[C@@H](O)[C@H]3O)C1 [FSA1610014, (4S,5aS,8S,8aR)-4-isobutyl-N-((1R,9S,10R,11R,12R,13S,14R,E)-12,13,14-trihydroxy-9-methyl-15-oxa-2-thiabicyclo[9.3.1]pentadec-7-en-10-yl) octahydro-2H-oxepino[2,3-c]pyrrole-8-carboxamide]",–,> 32,16,2,32,0.25,> 32,16,0.5,32,32,16,32
"CC(C)C[C@@H]1CCO[C@@H]2[C@H](CN[C@@H]2C(=O)N[C@H]2[C@H]3O[C@H](SCCCC/C=C\[C@H]2C)[C@H](O)[C@@H](O)[C@H]3O)C1 [FSA1610015, (4S,5aS,8S,8aR)-4-isobutyl-N-((1R,9R,10R,11R,12R,13S,14R,Z)-12,13,14-trihydroxy-9-methyl-15-oxa-2-thiabicyclo[9.3.1]pentadec-7-en-10-yl) octahydro-2H-oxepino[2,3-c]pyrrole-8-carboxamide]",–,8,1,0.25,1,≤ 0.06,32,1,0.125,2,8,4,4
"CC(C)C[C@@H]1CCO[C@@H]2[C@H](CN[C@@H]2C(=O)N[C@H]2[C@H]3O[C@H](SCCCC/C=C/[C@H]2C)[C@H](O)[C@@H](O)[C@H]3O)C1 [FSA1610016, (4S,5aS,8S,8aR)-4-isobutyl-N-((1R,9R,10R,11R,12R,13S,14R,E)-12,13,14-trihydroxy-9-methyl-15-oxa-2-thiabicyclo[9.3.1]pentadec-7-en-10-yl) octahydro-2H-oxepino[2,3-c]pyrrole-8-carboxamide]",–,16,2,0.25,4,≤ 0.06,32,2,0.125,16,16,8,4
